Entries after “also recorded” stand apart in the source; their conditions may differ.
Experiments:
[1] = system: DNMT1; assay: DNMT1 mRNA expression (qRT-PCR) in mouse mammary glands and tumors; assay type: in vivo; conditions: in utero exposure vs control mice
Text: Total RNA was extracted using an RNeasy lipid mini kit (Qiagen, CA), according to manufacturer's instructions. One […] of total RNA per sample was used as a template for oligo-dT primed cDNA synthesis with a Supterscript reverse transcriptase, using Taqman Reverse Transcription kit (Applied Biosystems, CA). The cDNA samples served then as templates for quantitative real time PCR analysis with specific primers for the target gene using QuantiTect SYBR green PCR kit (Qiagen Inc., Valencia, Calif.) and an ABI Prism 7900 Sequence Detection System. Each sample was run in triplicate on a 384-well plate, and the qPCR run was repeated twice. The Ct values were averaged from the triplicates for each sample. To normalize the target gene expression the ratio to control RNA was calculated, i.e. the averages of the Ct triplicates from the Dnmt1 gene were divided by the average of the triplicates from the 18S gene. To determine the fold change of the target gene expression the results are presented as 2^ΔCt, where ΔCt=CT^target−Ct^18S.
The primer sequences for m18S rRNA were as previously published by Wang et al. (27).
Mammary tumor latency was compared with the final tumor burden in utero EE2 and GEN exposed mice to control mice, and in utero EE2 and GEN exposed mice to control mice exposed to HDAC+DNMT inhibitors separately; analysis was done using one-way ANOVA. Cumulative tumor burden during 16 weeks of tumor monitoring in the three groups, separately in those mice not given HDAC+DNMT inhibitors and those treated with the epigenetic drugs, was analysed using repeated measures one-way ANOVA. Log rank analysis was performed to compare mammary tumor incidence in the control and in utero EE2 and GEN exposed mice, again separately in those mice not given HDAC+DNMT inhibitors and those treated with the epigenetic drugs. Data for changes in DNMT1 expression among the groups in the mammary glands and tumors were assessed using two-way ANOVA, followed by Fisher LSD test

[2] = system: DNA adducts; assay: MDA-DNA adduct levels in mammary glands of F1-F3 rat offspring; assay type: in vivo, Sprague Dawley rats; conditions: F1-F3 generation offspring
[3] = system: mammary tumors; assay: DMBA-induced mammary tumorigenesis in F1-F3 offspring of rat dams fed HF or EE2 diet; assay type: in vivo, Sprague-Dawley rats
Experimental: Pregnant Sprague-Dawley rats (F0) were fed AI[…] control diet or an isocaloric AI[…] based HF diet, containing 43% energy from corn oil, throughout gestation. Another group of pregnant rats was fed AI[…] diet supplemented with 0.1 ppm ethinyl estradiol (EE2) from day 14 to day 20 of pregnancy. F1 females were mated with F1 males from the same group to produce the F2 generation. The F3 generation was produced in the same manner (FIG. 23). No sibling mating was carried out. […] AI[…] control diet (control, 17% energy from corn oil), isocaloric high fat diet (HF, 43% energy from corn oil) or ethinyl estradiol-supplemented AI[…] diet (EE2, 0.1 ppm). The HF diet was fed for dams through the duration of pregnancy (P) (21 days), while dams were fed EE2 supplemented diet between days P14-20. Once pups (F1) were born, all dams received the control diet. F1 and F2 females (n=8-10) were mated on PND 60 with males from the same group to produce the F2 and F3 generations. All F1 and F2 pregnant dams were fed control diet for the extent of pregnancy. Outcross experiments were also performed: F1 females or males exposed to EE2 or HF diet in utero were crossed with control males or females. […] Tumorigenesis (incidence and multiplicity) was monitored for 20 weeks. […] Louis, Mo.) in 1 ml of peanut oil. […] Tumor growth was measured using a caliper and the length, width, and height of each tumor were recorded. […] Differences in tumor latency and multiplicity were tested by t-test (or Mann-Whitney Rank Sum test) or one-way ANOVA (where appropriate, between groups comparisons after ANOVA were done using Dunn's multi-comparison procedure). Kaplan-Meier survival curves were used to compare differences in tumor incidence, followed by the log-rank test Tumor histopathology was analyzed.

[4] = Puberty onset (vaginal opening) of female mice exposed in utero; assay type: in vivo, C57BL/6 mice
Experimental: To assess possible changes in sexual maturation due to in utero ECD exposures during embryogenesis, the day of puberty onset was recorded, as defined based on vaginal opening (VO) in female mice. The mice were examined once a day starting on PND 21. In sexually mature mice, the stage of estrus cycle was determined based on the cytology of their vaginal smear (sampled by pipetting 20 μl PBS in and out of vagina onto a slide) as judged under the microscope. Stage of estrus cycle was determined for each mouse before necropsy and sample collection.

[5] = Body weight and growth of in utero exposed pups; assay type: in vivo, C57BL/6 mice; conditions: mouse, in vivo
Text: (§1) Additions to the basic diet were as follows: 1) cornstarch [control]; 2) EE2 0.1 ppm; 3) BPA 0.155 ppm; 4) GEN 500 ppm.

[6] = system: mammary tumors; assay: MPA/DMBA mammary tumorigenesis in mice exposed in utero to EE2, GEN or BPA (Example 5); assay type: in vivo, C57BL/6 mice; conditions: mouse, in vivo
Text: as §1

[7] = F1 generation (daughters) vs controls
[8] = F2 generation (granddaughters) vs controls
[9] = F3 generation (great-granddaughters) vs controls

In the case of `C#C[C@]1(O)CC[C@H]2[C@@H]3CCc4cc(O)ccc4[C@H]3CC[C@@]21C` [EE2, ethinyl estradiol], the “DNMT1 expression in mammary tumors” value [1] is reported as “significantly lower”, the “expression of DNMT1 in mammary glands” value [1] is reported as “an increase in the expression of DNMT1; also recorded: persistent up-regulation” and the “DNA adduct formation by measuring MDA levels” value [2] is reported as “mimicked the findings of changes in CYP1B1 expression”. For the same compound, the Mammary tumor incidence [3, 7] was “higher”, the mammary tumor multiplicity [3, 7] was “higher” and the Mammary tumor incidence [3, 8] was “neither tumor incidence (p=0.68) nor multiplicity (p=0.49) was statistically different”. The mammary tumor multiplicity [3, 8] was “neither tumor incidence (p=0.68) nor multiplicity (p=0.49) was statistically different”, the tumor multiplicity ([3]; F2 outcross EE2♀×C♂ vs controls) was “significantly higher” and the Mammary tumor incidence ([3]; F2 outcross, control ♀ x exposed ♂) was 33%. For the same compound, the Mammary tumor incidence ([3]; F2 outcross, exposed ♀ x control ♂) was 62%, the Mammary tumor incidence [3, 9] was “also higher, but not statistically significant” and the mammary tumor multiplicity [3, 9] was “significantly higher”. For the same compound, the “puberty onset / vaginal opening” value ([4]; female offspring, in utero exposure) was “significantly earlier puberty onset; also recorded: significantly accelerated”, the puberty onset ([4]; female pups, instead of PND 32) was 27 PND and the “birthweight, or postnatal weight development” value [5] was “did not alter”. The “mammary tumorigenesis (onset of tumor growth and cumulative tumor burden)” value [6] was “Enhanced mammary tumorigenesis”.
